The subject of series [1] is axillary buds of tobacco Michinoku 1 (burley cultivar). Kind of series: Axillary bud growth inhibition, pot test in glasshouse, spraying after top pruning (burley cultivar). The class given is in vivo, Nicotiana tabacum. As to conditions: 28 days after spraying. The procedure:
(§1) Tobacco seedlings of Tsukuba 1 (flue-cured cultivar) and Michinoku 1 (burley cultivar) were transplanted to 1/5000a Wagner pots filled with Kureha garden nursery soil. The plants were grown in a glasshouse, and the floral axis parts were removed at the time of single-flower bloom of tobacco (top pruning).
(§2) The formulations of the inhibitors for tobacco axillary bud growth obtained in Formulation Examples 1 to 4 above were each diluted with water to predetermined concentrations, and 20 ml of the water-diluted solutions of the respective inhibitors were separately sprayed using a contact-type axillary bud inhibitor spraying instrument equipped with a spot exhaust nozzle (Examples 1 to 4 and 5 to 8). In addition, butralin (trade name: Blue Ribbon) (Comparative Examples 1 to 2 and 5 to 6) and decyl alcohol (trade name: Contact) (Comparative Examples 3 to 4 and 7 to 8) were used for tests as comparative examples in the same manner as above. In the cases of both the flue-cured cultivar and burley cultivar, one plant was planted per pot, and the tests were carried out in duplicate.
(§3) For the respective cases, states of inhibition of axillary bud growth 28 days after the spraying were investigated together with untreated groups sprayed with no inhibitor, and axillary bud growth inhibition ratios were calculated by the following equation. Axillary bud growth inhibition ratio=(fresh weight of axillary buds per plant of untreated group−fresh weight of axillary buds per plant of treated group)÷(fresh weight of axillary buds per plant of untreated group)×100 [Math. 1]
(§4) Formulation of Formulation Example 1 or Formulation Example 3 was diluted with water to predetermined concentrations and mixed with decyl alcohol (manufactured by Wako Pure Chemical Industries, Ltd.), 2-ethylhexanol (manufactured by Wako Pure Chemical Industries, Ltd.) or geraniol (manufactured by Wako Pure Chemical Industries, Ltd.) at predetermined concentrations, and the resultant was adjusted and used for tests (Examples 9 to 14 and 15 to 20). In addition, as comparative examples, the formulation of Formulation Example 1 or Formulation Example 3 diluted with water to predetermined concentrations (Comparative Examples 9 to 10 and 14 to 15) and decyl alcohol, 2-ethylhexanol or geraniol diluted with water to a predetermined concentration were used for tests (Comparative Examples 11 to 13 and 16 to 18).
(§5) The respective inhibitors were sprayed in the same manner as in Test Example 1, and states of inhibition of axillary bud growth 28 days after the spraying were investigated together with untreated groups sprayed with no inhibitor. Then, axillary bud growth inhibition ratios were calculated.

Series [2] deals with axillary buds of tobacco Tsukuba 1 (flue-cured cultivar). Put plainly: Axillary bud growth inhibition, pot test in glasshouse, spraying after top pruning (flue-cured cultivar). It is filed as in vivo, Nicotiana tabacum. The conditions noted are these: 28 days after spraying. The procedure:
as §1, §2, §3, §4, §5

Series [3] relates to leaves (first to fourth from the top) of tobacco Michinoku 1 (burley cultivar). Put plainly: Harmful effect of inhibitor on leaves (burley cultivar). Also noted: species or system Nicotiana tabacum. The conditions noted are these: in vivo. The procedure: as §1, §2
Further, the presence or absence of the harmful effect of each inhibitor was evaluated in one of the following four categories depending on the degrees of growth inhibition, gangrene, change in color, deformation and the like of leaves (first to fourth leaves from the top). […]

[4] abbreviates: active ingredient 0.03%, 20 ml sprayed.
Setting [5] is: active ingredient 0.35%, 20 ml sprayed.
The mark [6] stands for this setting: active ingredient 2.6%, 20 ml sprayed.

Take `CCCCC(CC)CO` (centres unmarked) [2-ethylhexanol]: the entries for the “Axillary bud growth inhibition ratio (%)” value in series [1] (active ingredient 0.5%) and in series [2] (active ingredient 0.5%) were 28% and 21%, respectively.
`CCC(C)Nc1c([N+](=O)[O-])cc(C(C)(C)C)cc1[N+](=O)[O-]` (centres unmarked) [Butralin, butralin]: the “Axillary bud growth inhibition ratio (%)” value in series [1] (setting [4]) is on record as 48%; in series [1] (setting [5]), 97%; in series [2] (setting [4]) it was 44%; in series [2] (setting [5]) it was 98%. Besides, the “Harmful effect of inhibitor” value in series [3] is on record as “Absent”.
On to `CCCCCCCCCCO` [Decyl Alcohol, decyl alcohol], for which the “Axillary bud growth inhibition ratio (%)” value in series [1] (setting [4]) turned out to be 0%; in series [1] (active ingredient 0.5%), 37%; in series [1] (setting [6]) it was 94%; in series [2] (setting [4]) it was 0%; in series [2] (active ingredient 0.5%) it was 30%; in series [2] (setting [6]), 91%. Also, the “Harmful effect of inhibitor” value in series [3] is recorded as “Absent”.
`CSC(=O)c1c(C(F)F)nc(C(F)(F)F)c(C(=O)SC)c1CC(C)C` [Dithiopyr, dithiopyr]: the “Axillary bud growth inhibition ratio (%)” value was found to be 78% in series [1] (active ingredient 0.005%) and 75% in series [2] (active ingredient 0.005%).
For `CC(C)=CCC/C(C)=C/CO` [Geraniol, geraniol], the entries for the “Axillary bud growth inhibition ratio (%)” value in series [1] (active ingredient 0.5%) and in series [2] (active ingredient 0.5%) were 32% and 26%, respectively.
For `C#CC(C)(C)NC(=O)c1cc(Cl)cc(Cl)c1` [Propyzamide, propyzamide], the “Axillary bud growth inhibition ratio (%)” value is 72% in series [1] (active ingredient 0.005%) and 70% in series [2] (active ingredient 0.005%).

For the origin of these results see patent US9029293B2, “Tobacco axillary bud inhibitor and tobacco axillary bud-inhibiting method” (priority 2011, dated 2015).
